Experimental findings from patent US7169891B2, “Human pellino polypeptides” (Immunex Corporation, priority 2000, dated 2007) are described below.

Entries after “also recorded” stand apart in the source; their conditions may differ. Non-standard residues stand in square brackets, D forms with d. Residues, ends and D or L forms follow the SMILES beside them. *: point of attachment. Nle = CCCC[C@H](N)C(=O)O; Cbz = O=C(OCc1ccccc1)*; CH2F = FC*

In experiment [1] the test system is Pellino-1 Cleavage and Relocation. Description: Effect of protease and other inhibitors on PMA-induced Pellino-1 cleavage and relocation in COS7 cells. Particulars: for Effect on Pellino-1 Cleavage and Relocation: COS7 cells treated with PMA. The class given is cell-based, monkey. As to the method:
In an effort to determine which protease might be involved in the regulation of Pellino-1 cleavage, COS7 cells transfected with a Pellino-1-expressing construct were treated with PMA together with inhibitors of different classes of proteinases as shown in Table 3 below.

A further experiment deals with Pellino-1. The experiment is described as follows: Effect of cell stimulation on Pellino-1 localization and cleavage in transfected COS-7 cells. The class given is cell-based, monkey. Conditions: for Effect of growth factor incubation on Pellino-1 (cleavage and redistribution): Pellino-1-transfected cells, concentration not given. On the procedure: This example describes the effect of stimulation of COS-7 cells transfected with an expression vector encoding FLAG-Pellino-1 with IL-1 or other molecules. Transfected cells are prepared substantially as described above. […] As Drosophila Pellino was identified by its ability to associate with Pelle, experiments in which Pellino is coexpressed with IRAK have been performed to determine if mammalian Pellino interacted with IRAK, the presumptive mammalian counterpart of Pelle.
To determine if the observed redistribution and proteolytic processing of Pellino-1 specifically required IRAK, Pellino-1-transfected cells were stimulated with agents that activate NF-kB by IRAK-independent pathways such as phorbol myristate acetate (PMA, 100 ng/ml), which is known to promote many of the same intracellular signals as IL-1, and TNF-alpha (20 ng/ml). TNF-alpha activates NF-kB through a mechanism involving the adaptor protein TRADD, the kinase RIP, and TRAF2, while PMA stimulates the activity of protein kinase C which is known to cross-talk with the NF-kB pathway. […] In both cases, 2 to 3 hours of exposure to the stimulus was required before significant Pellino cleavage was seen. The total amount of detectable Pellino-1 polypeptide (the sum of soluble and insoluble fractions) was increased in the presence of PMA or TNF-alpha, which presumably reflects a change in the net rates of Pellino-1 synthesis and/or degradation. […] EGF has been reported in some cells to activate NF-kB through the induction of IkB-alpha degradation.

For experiment [2], the system named is NF-kB-dependent reporter gene. The experiment is described as follows: NF-kB-dependent reporter gene (luciferase) assay in transfected COS cells. Particulars: for Effect on Reporter Gene: NF-kB-dependent reporter gene activity, form of murine Pellino-1 expressed in COS cells. The class given is cell-based, monkey. From the text:
(§1) The murine Pellino-1 coding sequence DNA was fused, in frame at the 3′ end, to DNA encoding the FLAG epitope, followed by an in-frame stop codon. This construct was cloned into the mammalian expression vector pDC304 (identical to pDC302, described in U.S. Pat. No. 5,599,905, issued Feb. 4, 1997, except that the early splice region, consisting of splice donor and acceptor sites of the SV40 viral element, has been removed); and transfected into an IL-1-responsive line of COS-7 cells by the DEAE-dextran method.
In order to assay the effect of the Pellino-1-FLAG polypeptide and other forms of Pellino polypeptides on reporter gene activity, a method essentially as described in Born et al., 1998, J. Biol. Cheni. 273: 29445–29450 (which is incorporated by reference herein) can be used. As one example of this method, Cos7 cells were transiently transfected by the DEAE-dextran method as described (Cosman et al., 1984, Nature 312: 768–771, which is incorporated by reference herein), using 150 ng of the Pellino polypeptide expression construct and 700 ng of the reporter plasmid per 45,000 cells. Two days post-transfection, cells were stimulated with 10 ng/ml IL-1 or 40 ng/ml IL-18 (PeproTech, Inc.) for 4 hours. Cells were lysed and luciferase activity assessed using Reporter Lysis Buffer and Luciferase Assay Reagent (Promega Corp.). IL-8 promoter-reporter and NFkB-dependent reporter constructs may be used as reporter plasmids. Alternatively, the effect of Pellino polypeptide expression may be assayed in COS-1 cells. In an alternative preferred method, COS7 cells were grown in 12-well dishes as described above. The cells were transiently transfected with Pellino test plasmid, 50 ng of reporter plasmid DNA, and empty vector, as required, to a total of 1 micrograms of total DNA per well. After 24 hours, stimulating agents were added in a small amount (less than 0.5% final volume) of medium or dimethyl sulfoxide, and the cells were re-incubated for 5 hours. Cells were lysed in luciferase Reporter Lysis Buffer (Promega, Madison Wis., 0.25 ml per well) and luciferase activity was measured in a EG & G/Berthold luminometer after addition of Luciferase Assay Reagent (Promega) according to the supplier's instructions. All results were normalized to total protein content of the lysates as measured using the micro-BCA assay (Pierce, Rockford, Ill).
For orientation: In a reporter assay the amount or activity of a reporter protein is the signal.

Experiment [3] relates to Jun N-terminal kinase, p38 kinase, and ERK signaling. The experiment is described as follows: Jun N-terminal kinase, p38 kinase and ERK signaling mediated by IL-1. The class given is cell-based.
Experiment [4] concerns IL-8 promoter-reporter gene. The experiment is described as follows: IL-8 promoter-reporter gene assay in transfected COS cells. The class given is cell-based, monkey. Particulars: COS-1 cells; presence and absence of TNF-alpha; compared to vector-only control.
Description: as §1
In order to assay the effect of the Pellino-1-FLAG polypeptide and other forms of Pellino polypeptides on reporter gene activity, a method essentially as described in Born et al., 1998, J. Biol. Cheni. 273: 29445–29450 (which is incorporated by reference herein) can be used. […] Cells were lysed and luciferase activity assessed using Reporter Lysis Buffer and Luciferase Assay Reagent (Promega Corp.). […] Cells were lysed in luciferase Reporter Lysis Buffer (Promega, Madison Wis., 0.25 ml per well) and luciferase activity was measured in a EG & G/Berthold luminometer after addition of Luciferase Assay Reagent (Promega) according to the supplier's instructions. All results were normalized to total protein content of the lysates as measured using the micro-BCA assay (Pierce, Rockford, Ill).

With `Cc1ccc(S(=O)(=O)N[C@@H](Cc2ccccc2)C(=O)CCl)cc1` [TPCK], the “Effect on Pellino-1 Cleavage and Relocation” value in experiment [1] (inhibitor 20 microM) is reported as “inhibition”.

Consider `CC(=O)N[C@@H](CSC(=O)[C@]1([C@@H](O)C(C)C)NC(=O)[C@H](C)[C@@H]1O)C(=O)O` [Lactacystin], for which the “Effect on Pellino-1 Cleavage and Relocation” value in experiment [1] (inhibitor 20 microM) is reported as “none”.

For `COC(=O)C[C@H](NC(=O)[C@H](C)NC(=O)[C@@H](NC(=O)OCc1ccccc1)C(C)C)C(=O)CF` [Z-VAD-FMK] (Cbz-Val-Ala-Asp(OMe)-CH2F), the “Effect on Pellino-1 Cleavage and Relocation” value in experiment [1] (inhibitor 20 microM) is on record as “none”.

As for epidermal growth factor, in the experiment on Pellino-1, the “Effect of growth factor incubation on Pellino-1 (cleavage and redistribution)” value (shortened to “Effect of growth factor incubation”) was “very weakly active”.

As for `CC(C)C[C@@H](C=O)NC(=O)[C@H](CC(C)C)NC(=O)[C@H](CC(C)C)NC(=O)OCc1ccccc1` [MG132] (Cbz-Leu-Leu-Leu-aldehyde), the “Effect on Pellino-1 Cleavage and Relocation” value in experiment [1] (inhibitor 10 microM) is on record as “none”.

Take `CCCC[C@@H](C=O)NC(=O)[C@H](CC(C)C)NC(=O)[C@H](CC(C)C)NC(C)=O` [ALLN] (Ac-Leu-Leu-[Nle]-aldehyde): the “Effect on Pellino-1 Cleavage and Relocation” value in experiment [1] (inhibitor 20 microM) was “none”.

Regarding `COC(=O)CC[C@H](NC(=O)[C@H](CC(=O)OC)NC(=O)OCc1ccccc1)C(=O)N[C@H](C(=O)N[C@@H](CC(=O)OC)C(=O)CF)C(C)C` [Z-DEVD-FMK], the “Effect on Pellino-1 Cleavage and Relocation” value in experiment [1] (inhibitor 20 microM) is on record as “none”.

With “basic fibroblast growth factor: growth factor”, the “Effect of growth factor incubation” value in the experiment with Pellino-1 was “little or no effect”.

For the molecule TNF-alpha, in the experiment with Pellino-1 (TNF-alpha 20 ng/ml, time-course experiments), the “Time after induction at which cleavage and relocation of Pellino-1 began” value is given as “about three”.

Regarding `C[C@@H]1C[C@@H]([C@H](O)CC2CC(=O)NC(=O)C2)C(=O)[C@@H](C)C1` [Cycloheximide], the “Effect on Pellino-1 Cleavage and Relocation” value in experiment [1] (inhibitor 40 microM) is given as “inhibition”. Further, in experiment [1] (treatment of FLAG-Pellino-1-transfected COS7 cells with the inhibitor), the “PMA-induced Pellino-1 cleavage (and relocation)” value is on record as “largely prevented; also recorded: completely prevented”.

Regarding transforming growth factor-beta, in the experiment on Pellino-1, the “Effect of growth factor incubation” value is reported as “little or no effect”.

Turning to platelet-derived growth factor, the “Effect of growth factor incubation” value in the experiment on Pellino-1 is given as “little or no effect”.

B1: dN99-FLAG: murine Pellino-1-FLAG, N-terminal 99 amino acids deleted (protein, UniProt Q8C669 100-418, looked up, fragment)
chain: FQIGRSTESPIDFVVTDTVPGSQSNSDTQSVQSTISRFACRIICERSPPFTARIYAAGFDSSKNIFLGEKAAKWKTSDGQMDGLTTNGVLVMHPRNGFTEDSKPGIWREISVCGNVFSLRETRSAQQRGKMVEIETNQLQDGSLIDLCGATLLWRTAEGLSHTPTVKHLEALRQEINAARPQCPVGFNTLAFPSMKRKDVVDEKQPWVYLNCGHVHGYHNWGNKEERDGKDRECPMCRSVGPYVPLWLGCEAGFYVDAGPPTHAFSPCGHVCSEKTTAYWSQIPLPHGTHTFHAACPFCAHQLAGEQGYIRLIFQGPLD
modifications: FLAG tag
notes: murine Pellino-1-FLAG, N-terminal 99 amino acids deleted
Take B1: the “Effect on Reporter Gene” value in experiment [2] is given as “Inhibitory”.

B2: wild-type-FLAG: unaltered murine Pellino-1 (SEQ ID NO:2) fused to the FLAG epitope (protein, listed as Mus musculus)
chain: MFSPDQENHPSKAPVKYGELIVLGYNGSLPNGDRGRRKSRFALFKRPKANGVKPSTVHIACTPQAAKAISNKDQHSISYTLSRAQTVVVEYTHDSNTDMFQIGRSTESPIDFVVTDTVPGSQSNSDTQSVQSTISRFACRIICERSPPFTARIYAAGFDSSKNIFLGEKAAKWKTSDGQMDGLTTNGVLVMHPRNGFTEDSKPGIWREISVCGNVFSLRETRSAQQRGKMVEIETNQLQDGSLIDLCGATLLWRTAEGLSHTPTVKHLEALRQEINAARPQCPVGFNTLAFPSMKRKDVVDEKQPWVYLNCGHVHGYHNWGNKEERDGKDRECPMCRSVGPYVPLWLGCEAGFYVDAGPPTHAFSPCGHVCSEKTTAYWSQIPLPHGTHTFHAACPFCAHQLAGEQGYIRLIFQGPLD
modifications: FLAG tag
On to B2, for which the “Jun N-terminal kinase, p38 kinase, and ERK signaling mediated by IL-1” value in experiment [3] is given as “moderately augmented”. In addition, the “Effect on Reporter Gene” value in experiment [2] is “Stimulatory”. The “IL-1-induced NFkB-dependent reporter gene activity” value in experiment [2] (preliminary experiment, COS-7 cells) was “partially inhibit”.

B3: wild-type Pellino-1: wild-type Pellino-1 polypeptide expressed in COS cells; murine sequence SEQ ID NO:2 (protein, listed as Mus musculus)
chain: MFSPDQENHPSKAPVKYGELIVLGYNGSLPNGDRGRRKSRFALFKRPKANGVKPSTVHIACTPQAAKAISNKDQHSISYTLSRAQTVVVEYTHDSNTDMFQIGRSTESPIDFVVTDTVPGSQSNSDTQSVQSTISRFACRIICERSPPFTARIYAAGFDSSKNIFLGEKAAKWKTSDGQMDGLTTNGVLVMHPRNGFTEDSKPGIWREISVCGNVFSLRETRSAQQRGKMVEIETNQLQDGSLIDLCGATLLWRTAEGLSHTPTVKHLEALRQEINAARPQCPVGFNTLAFPSMKRKDVVDEKQPWVYLNCGHVHGYHNWGNKEERDGKDRECPMCRSVGPYVPLWLGCEAGFYVDAGPPTHAFSPCGHVCSEKTTAYWSQIPLPHGTHTFHAACPFCAHQLAGEQGYIRLIFQGPLD
As to B3, the “IL-8 promoter-reporter gene activity” value in experiment [4] is on record as “stimulates”. The “NFkB-dependent reporter gene activity” value in experiment [2] (COS cells transfected with high concentrations of expressing construct) is on record as “inhibitory effect”.
